Where two headings read alike, the source gives them in different places.
Columns and labels:
N5 (H12N5) neuraminidase = N5 (H12N5) neuraminidase (Influenza A virus, UniProt A1ILL9); assay: biochemical
N2 (H3N2) neuraminidase = N2 (H3N2) neuraminidase (Influenza A virus, UniProt Q8AZ87); assay: biochemical
in vitro = conditions: dog
[1] = tested on: H1N1 (A/Puerto Rico/8/34); assay: microbe, parasite or virus in culture; format: cell-based, influenza A virus; conditions: read-out: EC50 H1N1
H3N2 (A/Moscow/10/99) = assay: microbe, parasite or virus in culture; format: cell-based, influenza A virus; conditions: read-out: EC50 H3N2

CCC(CC)O[C@@H]1C=C(C(=O)O)C[C@H](n2nncc2COc2ccc(C[C@H](N)C(=O)O)cc2)[C@H]1NC(C)=O [Compound 2n, (3R,4R,5S)-4-Acetamido-5-{5-{[4-((S)-2-amino-2-carboxyethyl)phenoxy]methyl}-1H-1,2,3-triazol-1-yl}-3-(pentan-3-yloxy)cyclohex-1-ene-1-carboxylic acid]
IC50 (N5 (H12N5) neuraminidase): 2.43 ± 0.33 µM

CCC(CC)O[C@@H]1C=C(C(=O)O)C[C@H](n2nncc2-c2ccc(C(=O)O)cc2)[C@H]1NC(C)=O [Compound 2f, (3R,4R,5S)-4-Acetamido-5-[5-(4-carboxyphenyl)-1H-1,2,3-triazol-1-yl]-3-(pentan-3-yloxy)cyclohex-1-ene-1-carboxylic acid]
IC50 (N5 (H12N5) neuraminidase): 3.92 ± 0.69 µM

CCC(CC)O[C@@H]1C=C(C(=O)O)C[C@H](n2nncc2-c2ccc(N(C)C)cc2)[C@H]1NC(C)=O [Compound 2l, (3R,4R,5S)-4-Acetamido-5-[5-(4-dimethylaminophenyl)-1H-1,2,3-triazol-1-yl]-3-(pentan-3-yloxy)cyclohex-1-ene-1-carboxylic acid]
IC50 (N5 (H12N5) neuraminidase): 0.14 ± 0.016 µM

CCC(CC)O[C@@H]1C=C(C(=O)O)C[C@H](n2cc(-c3ccccc3)nn2)[C@H]1NC(C)=O [Compound 1e, (3R,4R,5S)-4-Acetamido-3-(pentan-3-yloxy)-5-(4-phenyl-1H-1,2,3-triazol-1-yl)cyclohex-1-ene-1-carboxylic acid]
IC50 (N5 (H12N5) neuraminidase): 12.9 ± 1.57 µM

CCC(CC)O[C@@H]1C=C(C(=O)O)C[C@H](n2nncc2-c2ccccc2)[C@H]1NC(C)=O [Compound 2e, (3R,4R,5S)-4-Acetamido-3-(pentan-3-yloxy)-5-(5-phenyl-1H-1,2,3-triazol-1-yl)cyclohex-1-ene-1-carboxylic acid]
IC50 (N5 (H12N5) neuraminidase): 5.34 ± 0.45 µM

CCC(CC)O[C@@H]1C=C(C(=O)O)C[C@H](n2cc(COc3ccc4ccccc4c3)nn2)[C@H]1NC(C)=O [Compound 1c, (3R,4R,5S)-4-Acetamido-5-[4-(2-naphthyloxy)methyl-1H-1,2,3-triazol-1-yl]-3-(pentan-3-yloxy)cyclohex-1-ene-1-carboxylic acid]
IC50 (N2 (H3N2) neuraminidase): 3.8 ± 0.65 µM | IC50 (N5 (H12N5) neuraminidase): 1.66 ± 0.25 µM

CCC(CC)O[C@@H]1C=C(C(=O)O)C[C@H](n2nncc2-c2ccccc2N)[C@H]1NC(C)=O [Compound 2k, (3R,4R,5S)-4-Acetamido-5-[5-(2-aminophenyl)-1H-1,2,3-triazol-1-yl]-3-(pentan-3-yloxy)cyclohex-1-ene-1-carboxylic acid]
IC50 (N5 (H12N5) neuraminidase): 0.41 ± 0.047 µM

CCC(CC)O[C@@H]1C=C(C(=O)O)C[C@H](n2cc(-c3ccc(Oc4ccccc4)cc3)nn2)[C@H]1NC(C)=O [Compound 1b, (3R,4R,5S)-4-Acetamido-3-(pentan-3-yloxy)-5-[4-(4-phenoxyphenyl)-1H-1,2,3-triazol-1-yl]cyclohex-1-ene-1-carboxylic acid]
IC50 (N2 (H3N2) neuraminidase): > 100 µM | IC50 (N5 (H12N5) neuraminidase): > 100 µM

CCC(CC)O[C@@H]1C=C(C(=O)O)C[C@H](n2nncc2-c2cccc(N)c2)[C@H]1NC(C)=O [Compound 2j, (3R,4R,5S)-4-Acetamido-5-[5-(3-aminophenyl)-1H-1,2,3-triazol-1-yl]-3-(pentan-3-yloxy)cyclohex-1-ene-1-carboxylic acid]
CC50 (in vitro): > 500 µM | EC50 ([1]; Influenza A virus, H1N1, MDCK, 72 h): 11.5 ± 2.69 µM | EC50 (H3N2 (A/Moscow/10/99); Influenza A virus, H3N2, MDCK, 72 h): 7.65 ± 0.7 µM | IC50 (N5 (H12N5) neuraminidase): 0.045 ± 0.016 µM

CCC(CC)O[C@@H]1C=C(C(=O)O)C[C@H](n2cc(-c3ccc(N(CC)CC)cc3)nn2)[C@H]1NC(C)=O [Compound 1m, (3R,4R,5S)-4-Acetamido-5-[4-(4-diethylaminophenyl)-1H-1,2,3-triazol-1-yl]-3-(pentan-3-yloxy)cyclohex-1-ene-1-carboxylic acid]
IC50 (N5 (H12N5) neuraminidase): > 100 µM

CCC(CC)O[C@@H]1C=C(C(=O)O)C[C@H](n2cc(-c3ccc(C)cc3)nn2)[C@H]1NC(C)=O [Compound 1d, (3R,4R,5S)-4-Acetamido-5-[4-(4-methylphenyl)-1H-1,2,3-triazol-1-yl]-3-(pentan-3-yloxy)cyclohex-1-ene-1-carboxylic acid]
IC50 (N2 (H3N2) neuraminidase): 4.41 ± 1.11 µM | IC50 (N5 (H12N5) neuraminidase): 2.85 ± 1.28 µM

CCC(CC)O[C@@H]1C=C(C(=O)O)C[C@H](n2cc(COc3ccc(C[C@H](N)C(=O)O)cc3)nn2)[C@H]1NC(C)=O [Compound 1n, (3R,4R,5S)-4-Acetamido-5-{4-{[4-((S)-2-amino-2-carboxyethyl)phenoxy]methyl}-1H-1,2,3-triazol-1-yl}-3-(pentan-3-yloxy)cyclohex-1-ene-1-carboxylic acid]
IC50 (N5 (H12N5) neuraminidase): 6.95 ± 0.47 µM

CCC(CC)O[C@@H]1C=C(C(=O)O)C[C@H](n2nncc2-c2ccc(N)cc2)[C@H]1NC(C)=O [Compound 2i, (3R,4R,5S)-4-Acetamido-5-[5-(4-aminophenyl)-1H-1,2,3-triazol-1-yl]-3-(pentan-3-yloxy)cyclohex-1-ene-1-carboxylic acid]
IC50 (N5 (H12N5) neuraminidase): 0.25 ± 0.044 µM

CCC(CC)O[C@@H]1C=C(C(=O)O)C[C@H](n2cc(-c3cccc(C(=O)O)c3)nn2)[C@H]1NC(C)=O [Compound 1g, (3R,4R,5S)-4-Acetamido-5-[4-(3-carboxyphenyl)-1H-1,2,3-triazol-1-yl]-3-(pentan-3-yloxy)cyclohex-1-ene-1-carboxylic acid]
IC50 (N5 (H12N5) neuraminidase): 29.5 ± 8 µM

CCC(CC)O[C@@H]1C=C(C(=O)O)C[C@H](n2nncc2-c2cccc(C(=O)O)c2)[C@H]1NC(C)=O [Compound 2g, (3R,4R,5S)-4-Acetamido-5-[5-(3-carboxyphenyl)-1H-1,2,3-triazol-1-yl]-3-(pentan-3-yloxy)cyclohex-1-ene-1-carboxylic acid]
IC50 (N5 (H12N5) neuraminidase): 2.04 ± 0.99 µM

CCC(CC)O[C@@H]1C=C(C(=O)O)C[C@H](n2cc(-c3ccc(N(C)C)cc3)nn2)[C@H]1NC(C)=O [Compound 1l, (3R,4R,5S)-4-Acetamido-5-[4-(4-dimethylaminophenyl)-1H-1,2,3-triazol-1-yl]-3-(pentan-3-yloxy)cyclohex-1-ene-1-carboxylic acid]
IC50 (N5 (H12N5) neuraminidase): 0.74 ± 0.18 µM

CCC(CC)O[C@@H]1C=C(C(=O)O)C[C@H](n2nncc2-c2ccc(N(CC)CC)cc2)[C@H]1NC(C)=O [Compound 2m, (3R,4R,5S)-4-Acetamido-5-[5-(4-diethylaminophenyl)-1H-1,2,3-triazol-1-yl]-3-(pentan-3-yloxy)cyclohex-1-ene-1-carboxylic acid]
IC50 (N5 (H12N5) neuraminidase): > 100 µM

CCC(CC)O[C@@H]1C=C(C(=O)O)C[C@H](n2cc(-c3ccccc3N)nn2)[C@H]1NC(C)=O [Compound 1k, (3R,4R,5S)-4-Acetamido-5-[4-(2-aminophenyl)-1H-1,2,3-triazol-1-yl]-3-(pentan-3-yloxy)cyclohex-1-ene-1-carboxylic acid]
IC50 (N5 (H12N5) neuraminidase): 0.52 ± 0.13 µM

CCC(CC)O[C@@H]1C=C(C(=O)O)C[C@H](n2cc(-c3ccccc3C(=O)O)nn2)[C@H]1NC(C)=O [Compound 1h, (3R,4R,5S)-4-Acetamido-5-[4-(2-carboxyphenyl)-1H-1,2,3-triazol-1-yl]-3-(pentan-3-yloxy)cyclohex-1-ene-1-carboxylic acid]
IC50 (N5 (H12N5) neuraminidase): 61.2 ± 23.7 µM

CCC(CC)O[C@@H]1C=C(C(=O)O)C[C@H](n2nncc2-c2ccccc2C(=O)O)[C@H]1NC(C)=O [Compound 2h, (3R,4R,5S)-4-Acetamido-5-[5-(2-carboxyphenyl)-1H-1,2,3-triazol-1-yl]-3-(pentan-3-yloxy)cyclohex-1-ene-1-carboxylic acid]
IC50 (N5 (H12N5) neuraminidase): 0.57 ± 0.13 µM

CCC(CC)O[C@@H]1C=C(C(=O)O)C[C@H](n2cc(-c3ccc(C(=O)O)cc3)nn2)[C@H]1NC(C)=O [Compound 1f, (3R,4R,5S)-4-Acetamido-5-[4-(4-carboxyphenyl)-1H-1,2,3-triazol-1-yl]-3-(pentan-3-yloxy)cyclohex-1-ene-1-carboxylic acid]
IC50 (N5 (H12N5) neuraminidase): 8.14 ± 1.12 µM

CCC(CC)O[C@@H]1C=C(C(=O)O)C[C@H](N)[C@H]1NC(C)=O [OSC, oseltamivir carboxylate, reference compound]
CC50 (in vitro): > 500 µM | EC50 [1]: 0.25 ± 0.081 µM | EC50 (H3N2 (A/Moscow/10/99)): 0.43 ± 0.08 µM | IC50 (N5 (H12N5) neuraminidase): 0.00094 ± 0.0003 µM

CCC(CC)O[C@@H]1C=C(C(=O)O)C[C@H](n2cc(-c3ccc(-c4ccccc4)cc3)nn2)[C@H]1NC(C)=O [Compound 1a, (3R,4R,5S)-4-Acetamido-5-[4-(1,1′-biphenyl-4-yl)-1H-1,2,3-triazol-1-yl]-3-(pentan-3-yloxy)cyclohex-1-ene-1-carboxylic acid]
IC50 (N2 (H3N2) neuraminidase): > 100 µM | IC50 (N5 (H12N5) neuraminidase): > 100 µM

CCC(CC)O[C@@H]1C=C(C(=O)O)C[C@H](n2cc(-c3cccc(N)c3)nn2)[C@H]1NC(C)=O [Compound 1j, (3R,4R,5S)-4-Acetamido-5-[4-(3-aminophenyl)-1H-1,2,3-triazol-1-yl]-3-(pentan-3-yloxy)cyclohex-1-ene-1-carboxylic acid]
IC50 (N5 (H12N5) neuraminidase): 3.6 ± 0.82 µM

CCC(CC)O[C@@H]1C=C(C(=O)O)C[C@H](n2cc(-c3ccc(N)cc3)nn2)[C@H]1NC(C)=O [Compound 1i, (3R,4R,5S)-4-Acetamido-5-[4-(4-aminophenyl)-1H-1,2,3-triazol-1-yl]-3-(pentan-3-yloxy)cyclohex-1-ene-1-carboxylic acid]
IC50 (N5 (H12N5) neuraminidase): > 100 µM

From paper PMC8696196 (RSC Advances, 2021)
